According to US20030138533A1, “Food and beverage perservative” (Nutraceutical Clinical Laboratories International, Inc., priority 2002, published 2003):

System: mold
Assay: Mold growth in white pan bread during storage (shelf-life test)
Settings: white pan bread mix; test preservative about 3.5% of total mix weight, control 0.27% calcium propionate; same packaging and storage; 90 day test period
Description: The test sample preservative composition as shown in Table 1 was added to white pan bread mix in the final minute of mixing after yeast and salt had been blended into the mixture. The preservative composition comprised about 3.5% of the total weight of the mix. A control sample containing 0.27% calcium propionate was added to another identical sample of white pan bread mix. The control sample molded in 12 days. The test sample remained free of any sign of mold growth during a 90 day test period. Both the test sample and the control sample were packaged and stored in the same conditions throughout the test period.

In the case of `CCC(=O)[O-].CCC(=O)[O-].[Ca+2]` [calcium propionate], the “time without mold growth (time until the bread sample molded)” value is reported as 12 days.
